Test results taken from patent publication US20090311237A1, “Combination therapy using a soluble hyaluronidase and a bisphosphonate” (priority 2008, published 2009).
Values joined by “and” are separate entries in the source; they are usually repeats but may differ in a detail not shown here. Equal values may be shown once. Read-outs that look alike come from different tables or passages of the source.

Test: Phase 1 Stage 1 clinical pharmacokinetics of SC ZA co-administered with rHuPH20
Assay type: in vivo, human
Conditions: for half-life / AUC(0-t) / Cmax / AUC(0-inf) / Tmax: human, serum; for half-life: read-out: T½ λz (converted); for AUC(0-inf): read-out: AUC (0-inf); for Tmax: read-out: Tmax
Procedure: A pharmacokinetic study of zoledronic acid (ZA) co-administered with rHuPH20 in human subjects was conducted. The primary objective of the study was to determine the bioavailability of zoledronic acid dosed via subcutaneous (SC) co-administration with human recombinant hyaluronidase PH20 (rHuPH20). […] The patients were administered the prescribed dosage formulations as follows: Cohorts 1-5 were administered a single subcutaneous infusion in a dosage volume of 100 ml at a rate of 3 mL/min. […] The dosing solution is administered via needle or catheter into the SC space of the left anterior thigh (midway between the anterior iliac crest and the cephalad border of the patella). For cohorts 1-5, the dosing solutions were administered by a controlled rate infusion pump at approximately 3 mL/minute. […] The dosing solutions were administered by syringe push bolus injection. […] Serum concentration of ZA was determined using a qualified LC-MS-MS assay after derivatization with diazomethane (Zhu, L S et al. (2006) Rapid Commun. […] The assay range was from 2.0 to 400 ng/mL with a lower limit of quantitation (LLOQ) at 2.0 ng/mL. […] Non-compartmental analysis was used for derivation of primary and secondary pharmacokinetic (PK) parameters. […] Summary statistics (mean, standard deviation, and median) were calculated using JMP or Microsoft Excel.

[1] = ZA 2 mg SC + 24000 U rHuPH20, mean, n=3
[2] = ZA 2 mg SC + 24000 U rHuPH20, median, n=3
[3] = ZA 2 mg SC, 100 mL, 24000 Units rHuPH20, n=3
[4] = ZA 5 mg SC + 24000 U rHuPH20, individual subjects
[5] = ZA 5 mg SC + 24000 U rHuPH20, mean, n=3
[6] = ZA 5 mg SC + 24000 U rHuPH20, median, n=3
[7] = ZA 5 mg SC, 100 mL, 24000 Units rHuPH20, n=3
[8] = ZA 0.25-5 mg SC, 100 mL, 24000 Units rHuPH20, n=15
[9] = sc, 0.0196 mg/kg, Subj 27, ZA 0.0196 mg/kg SC, inf […], PH20 23976 U
[10] = sc, 0.0339 mg/kg, Subj 29, ZA 0.0339 mg/kg SC, inf 0.556 hr, PH20 24000 U
[11] = sc, 0.0608 mg/kg, Subj 68, ZA 0.0608 mg/kg SC, inf […], PH20 2880 U
[12] = sc, 0.0653 mg/kg, Subj 41, ZA 0.0653 mg/kg SC, inf […], PH20 12216 U
[13] = sc, 0.0691 mg/kg, Subj 39, ZA 0.0691 mg/kg SC, inf 0.552 hr, PH20 23856 U
[14] = sc, 0.0706 mg/kg, Subj 38, ZA 0.0706 mg/kg SC, inf 0.554 hr, PH20 23952 U
[15] = sc, 0.0717 mg/kg, Subj 67, ZA 0.0717 mg/kg SC, inf […], PH20 2880 U
[16] = sc, 0.0776 mg/kg, Subj 70, ZA 0.0776 mg/kg SC, inf […], PH20 2928 U
[17] = sc, 0.0781 mg/kg, Subj 71, ZA 0.0781 mg/kg SC, inf […], PH20 6000 U

What does the source list for `O=P(O)(O)C(O)(Cn1ccnc1)P(=O)(O)O` [ZA, 1-hydroxy-2-(1H-imidazol-1-yl)ethylidene-1,1-bisphosphonic acid]?
T½elim (ZA 2 mg SC + 24000 U rHuPH20, individual subjects): 12.72 h (2×) and 22.02 h; AUC (0-∞)/D [1]: 0.00791 kg·h/mL; Cmax/D [1]: 0.00176 kg/mL; T½elim [1]: 15.82 h; AUC (0-∞)/D [2]: 0.00809 kg·h/mL; Cmax/D [2]: 0.00175 kg/mL; T½elim [2]: 12.72 h; MAT (mean absorption time = SC MRT − IV MRT) (ZA 2 mg SC, 100 mL, 24000 Units rHuPH20, individual subjects): 0.47 h and 0.94 h and 1.39 h; MAT, Mean for the dose group [3]: 0.93 h; MAT, Median for the dose group [3]: 0.94 h; AUC (0-12h) [4]: 477.36 ng·h/mL and 575.89 ng·h/mL; AUC (0-∞) [4]: 729.31 ng·h/mL; AUC (0-∞)/D [4]: 0.00789 kg·h/mL and 0.00901 kg·h/mL and 0.01049 kg·h/mL; Cmax/D [4]: 0.00167 kg/mL and 0.00165 kg/mL and 0.00211 kg/mL; MRT [4]: 13.81 h; T½elim [4]: 23.36 h and 24.45 h and 26.05 h; AUC (0-∞)/D [5]: 0.00913 kg·h/mL; Cmax/D [5]: 0.00181 kg/mL; T½elim [5]: 24.62 h; AUC (0-∞)/D [6]: 0.00901 kg·h/mL; Cmax/D [6]: 0.00167 kg/mL; T½elim [6]: 24.45 h; MAT (mean absorption time = SC MRT − IV MRT) (ZA 5 mg SC, 100 mL, 24000 Units rHuPH20, individual subjects): 1.74 h and 4.61 h and 3.46 h; MAT, Mean for the dose group [7]: 3.27 h; MAT, Median for the dose group [7]: 3.46 h; MAT, Mean for all dose groups [8]: 1.64 h; MAT, Median for all dose groups [8]: 1.39 h; half-life (0.082 mg/kg, Subj 63, ZA 0.0820 mg/kg SC, inf 0.250 hr, PH20 6000 U): 20.5 h; AUC(0-t) (sc, 0.0196 mg/kg, AUC (0-12 h), Subj 27, ZA 0.0196 mg/kg SC, inf […], PH20 23976 U): 104 ng·h/mL; AUC(0-t) (sc, 0.0196 mg/kg, AUC (0-24 h), Subj 27, ZA 0.0196 mg/kg SC, inf […], PH20 23976 U): 116 ng·h/mL; AUC(0-t) (sc, 0.0196 mg/kg, AUC (0-48 h), Subj 27, ZA 0.0196 mg/kg SC, inf […], PH20 23976 U): 119 ng·h/mL; Cmax [9]: 25 ng/mL; AUC(0-inf) [9]: 120 ng·h/mL; Tmax [9]: 0.72 h; half-life (sc, 0.0196 mg/kg): 6.53 h; AUC(0-t) (sc, 0.0339 mg/kg, AUC (0-12 h), Subj 29, ZA 0.0339 mg/kg SC, inf 0.556 hr, PH20 24000 U): 217 ng·h/mL; AUC(0-t) (sc, 0.0339 mg/kg, AUC (0-24 h), Subj 29, ZA 0.0339 mg/kg SC, inf 0.556 hr, PH20 24000 U): 231 ng·h/mL; AUC(0-t) (sc, 0.0339 mg/kg, AUC (0-48 h), Subj 29, ZA 0.0339 mg/kg SC, inf 0.556 hr, PH20 24000 U): 236 ng·h/mL; Cmax [10]: 62.8 ng/mL; AUC(0-inf) [10]: 241 ng·h/mL; Tmax [10]: 1.29 h; AUC(0-t) (sc, 0.0608 mg/kg, AUC (0-12 h), Subj 68, ZA 0.0608 mg/kg SC, inf […], PH20 2880 U): 456 ng·h/mL; AUC(0-t) (sc, 0.0608 mg/kg, AUC (0-24 h), Subj 68, ZA 0.0608 mg/kg SC, inf […], PH20 2880 U): 503 ng·h/mL; AUC(0-t) (sc, 0.0608 mg/kg, AUC (0-48 h), Subj 68, ZA 0.0608 mg/kg SC, inf […], PH20 2880 U): 557 ng·h/mL; Cmax [11]: 144 ng/mL; AUC(0-inf) [11]: 630 ng·h/mL; Tmax [11]: 1 h; half-life (sc, 0.0608 mg/kg): 27.9 h; AUC(0-t) (sc, 0.0653 mg/kg, AUC (0-12 h), Subj 41, ZA 0.0653 mg/kg SC, inf […], PH20 12216 U): 487 ng·h/mL; AUC(0-t) (sc, 0.0653 mg/kg, AUC (0-24 h), Subj 41, ZA 0.0653 mg/kg SC, inf […], PH20 12216 U): 531 ng·h/mL; AUC(0-t) (sc, 0.0653 mg/kg, AUC (0-48 h), Subj 41, ZA 0.0653 mg/kg SC, inf […], PH20 12216 U): 597 ng·h/mL; Cmax [12]: 141 ng/mL; AUC(0-inf) [12]: 736 ng·h/mL; Tmax [12]: 1.01 h; half-life (sc, 0.0653 mg/kg): 42.8 h; AUC(0-t) (sc, 0.0691 mg/kg, AUC (0-12 h), Subj 39, ZA 0.0691 mg/kg SC, inf 0.552 hr, PH20 23856 U): 574 ng·h/mL; AUC(0-t) (sc, 0.0691 mg/kg, AUC (0-24 h), Subj 39, ZA 0.0691 mg/kg SC, inf 0.552 hr, PH20 23856 U): 619 ng·h/mL; AUC(0-t) (sc, 0.0691 mg/kg, AUC (0-48 h), Subj 39, ZA 0.0691 mg/kg SC, inf 0.552 hr, PH20 23856 U): 667 ng·h/mL; Cmax [13]: 147 ng/mL; AUC(0-inf) [13]: 727 ng·h/mL; Tmax [13]: 0.79 h; half-life (sc, 0.0691 mg/kg): 26.1 h; AUC(0-t) (sc, 0.0706 mg/kg, AUC (0-12 h), Subj 38, ZA 0.0706 mg/kg SC, inf 0.554 hr, PH20 23952 U): 477 ng·h/mL; AUC(0-t) (sc, 0.0706 mg/kg, AUC (0-24 h), Subj 38, ZA 0.0706 mg/kg SC, inf 0.554 hr, PH20 23952 U): 524 ng·h/mL; AUC(0-t) (sc, 0.0706 mg/kg, AUC (0-48 h), Subj 38, ZA 0.0706 mg/kg SC, inf 0.554 hr, PH20 23952 U): 580 ng·h/mL; Cmax [14]: 117 ng/mL; AUC(0-inf) [14]: 637 ng·h/mL; Tmax [14]: 1.3 h; AUC(0-t) (sc, 0.0717 mg/kg, AUC (0-12 h), Subj 67, ZA 0.0717 mg/kg SC, inf […], PH20 2880 U): 565 ng·h/mL; AUC(0-t) (sc, 0.0717 mg/kg, AUC (0-24 h), Subj 67, ZA 0.0717 mg/kg SC, inf […], PH20 2880 U): 630 ng·h/mL; AUC(0-t) (sc, 0.0717 mg/kg, AUC (0-48 h), Subj 67, ZA 0.0717 mg/kg SC, inf […], PH20 2880 U): 683 ng·h/mL; Cmax [15]: 156 ng/mL; AUC(0-inf) [15]: 725 ng·h/mL; Tmax [15]: 0.74 h; half-life (sc, 0.0717 mg/kg): 18.3 h; AUC(0-t) (sc, 0.0776 mg/kg, AUC (0-12 h), Subj 70, ZA 0.0776 mg/kg SC, inf […], PH20 2928 U): 573 ng·h/mL; AUC(0-t) (sc, 0.0776 mg/kg, AUC (0-24 h), Subj 70, ZA 0.0776 mg/kg SC, inf […], PH20 2928 U): 616 ng·h/mL; AUC(0-t) (sc, 0.0776 mg/kg, AUC (0-48 h), Subj 70, ZA 0.0776 mg/kg SC, inf […], PH20 2928 U): 658 ng·h/mL; Cmax [16]: 215 ng/mL; AUC(0-inf) [16]: 690 ng·h/mL; Tmax [16]: 0.68 h; half-life (sc, 0.0776 mg/kg): 19.4 h; AUC(0-t) (sc, 0.0781 mg/kg, AUC (0-12 h), Subj 71, ZA 0.0781 mg/kg SC, inf […], PH20 6000 U): 592 ng·h/mL; AUC(0-t) (sc, 0.0781 mg/kg, AUC (0-24 h), Subj 71, ZA 0.0781 mg/kg SC, inf […], PH20 6000 U): 629 ng·h/mL; AUC(0-t) (sc, 0.0781 mg/kg, AUC (0-48 h), Subj 71, ZA 0.0781 mg/kg SC, inf […], PH20 6000 U): 665 ng·h/mL; Cmax [17]: 198 ng/mL; AUC(0-inf) [17]: 693 ng·h/mL; Tmax [17]: 0.88 h
